This passage reports EC50 and IC50 results from patent US20230391772A1, “METHODS AND COMPOSITIONS FOR TARGETED PROTEIN DEGRADATION” (Ranok Therapeutics (Hangzhou) Co. Ltd., priority 2020, published 2023).

The test system of test [1] is NCI-H358 human non-small cell lung cancer. Kind of test: NCI-H358 CCK-8 proliferation assay. Format: cell-based. Particulars: NCI-H358 cells, 72 hr. An outline of the steps:
(§1)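 Three KRAS(G12C) lines are used, MIA PaCa-2 at two mutant copies and the NSCLC lines NCI-H358 and NCI-H23 at one. Each compound is titrated 3-fold from 20 μM to 1.02 nM, and proliferation is scored by CCK-8.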
On the technique in general: Formazan colour is commonly taken as a measure of viable cells.

Test [2] deals with NCI-H23 human non-small cell lung cancer. Kind of test: NCI-H23 CCK-8 proliferation assay. In kind it is cell-based. Particulars: NCI-H23 cells, 72 hr. An outline of the steps:
as §1

Another test concerns the target T1, HSP90a protein (Homo sapiens, UniProt P07900).
T1 construct: purchased BPS Bioscience 50298
Kind of test: HSP90α-binding fluorescent polarization (FP) assay, BODIPY-labeled RNK04010 probe. Particulars: FP competition with RNK04010 (BODIPY-labeled), 5 nM, 300 min at 25° C. An outline of the steps: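 Competitive FP with N-terminal HSP90a; probe at 5 nM final, either BODIPY-labeled triazolone RNK04010 or FITC-geldanamycin. Test compounds as 2.5-fold dilutions from 20 μM to 5.2 nM. Incubated at 25 °C for 300 min (RNK04010) or 120 min (FITC-geldanamycin) before reading polarization.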

Another test concerns the target KRAS(G12C) (Homo sapiens, UniProt P01116, G12C). Kind of test: KRAS(G12C)/SOS1 homogeneous time-resolved fluorescence (HTRF) assay. Further details: purchased Cisbio 63ADK000CB16PEG. Particulars: absence of GTP, 4° C. for 3 hr, read-out: KRAS (G12C) binding. The gist of the method: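 HTRF kit measuring compound-induced block of KRAS(G12C)-SOS1 interaction without GTP. Compounds tested as 3-fold serial dilutions down to 1.02 nM, incubated with reaction components 3 h at 4 °C in sealed plates before fluorescence read.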
A general note: TR-FRET usually uses a lanthanide donor and a delayed reading to cut background.

The test system of test [3] is MIA PaCa-2 human pancreatic carcinoma. Kind of test: MIA PaCa-2 CCK-8 proliferation assay. In kind it is cell-based. Particulars: Homo sapiens, MIA PaCa-2, 72 h, MIA PaCa-2 cells. An outline of the steps:
as §1

Chain of KRAS(G12C) (P01116 1-188 isoform P01116-2 G12C): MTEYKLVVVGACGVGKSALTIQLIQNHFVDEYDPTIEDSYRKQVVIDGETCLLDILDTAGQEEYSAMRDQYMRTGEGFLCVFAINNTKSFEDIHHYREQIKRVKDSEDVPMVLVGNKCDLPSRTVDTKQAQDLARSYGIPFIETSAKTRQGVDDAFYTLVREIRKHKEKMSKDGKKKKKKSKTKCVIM

As a reminder, the EC50 is the concentration giving half of the maximal effect. High values mean a need for much substance, low ones an effect from little substance. For the compound `C=CC(=O)N1CCN(c2nc(NCCC(=O)NCCc3ccc(CN4CCC(Cc5ccc(-n6c(C(=O)NCC(F)(F)F)nnc6-c6cc(C(C)C)c(O)cc6O)cc5)CC4)cc3)nc3c2CCN(c2cc(O)cc4ccccc24)C3)CC1` [Compound 24, 4-(4-((1-(4-(2-(3-((4-(4-acryloylpiperazin-1-yl)-7-(3-hydroxynaphthalen-1-yl)-5,6,7,8-tetrahydropyrido[3,4-d]pyrimidin-2-yl)amino)propanamido)ethyl)benzyl)piperidin-4-yl)methyl)phenyl)-5-(2,4-dihydroxy-5-isopropylphenyl)-N-(2,2,2-trifluoroethyl)-4H-1,2,4-triazole-3-carboxamide, trifluoroacetic acid], the figures for the concentration giving a half-maximal response (EC50) in test [1], in test [2] and in test [3] were 100 to 1000 nM, > 1000 nM and 100 to 1000 nM, respectively. Besides, the IC50 on HSP90a protein was 100 to 1000 nM; at KRAS(G12C), > 1000 nM.
`C=CC(=O)N1CCN(c2nc(NCCC(=O)N3CCC(CN4CCN(Cc5ccc(-n6c(C(=O)NCC(F)(F)F)nnc6-c6cc(CC)c(O)cc6O)cc5)CC4)CC3)nc3c2CCN(c2cc(O)cc4ccccc24)C3)CC1` [Compound 17, 4-(4-((4-((1-(3-((4-(4-acryloylpiperazin-1-yl)-7-(3-hydroxynaphthalen-1-yl)-5,6,7,8-tetrahydropyrido[3,4-d]pyrimidin-2-yl)amino)propanoyl)piperidin-4-yl)methyl)piperazin-1-yl)methyl)phenyl)-5-(5-ethyl-2,4-dihydroxyphenyl)-N-(2,2,2-trifluoroethyl)-4H-1,2,4-triazole-3-carboxamide, trifluoroacetic acid]: the EC50 in test [1] and in test [2] was 100 to 1000 nM each time. The figures for the IC50 on HSP90a protein and on KRAS(G12C) were 100 to 1000 nM and > 1000 nM, respectively.
With `CCc1cc(-c2nnc(C(=O)NC(C)C)n2-c2ccc(CN3CCN(CC4CCN(C(=O)CCNc5nc6c(c(N7CCN(C(C)=O)CC7)n5)CCN(c5cc(O)cc7ccccc57)C6)CC4)CC3)cc2)c(O)cc1O` [Compound 55, 4-(4-((4-((1-(3-((4-(4-acetylpiperazin-1-yl)-7-(3-hydroxynaphthalen-1-yl)-5,6,7,8-tetrahydropyrido[3,4-d]pyrimidin-2-yl)amino)propanoyl)piperidin-4-yl)methyl)piperazin-1-yl)methyl)phenyl)-5-(5-ethyl-2,4-dihydroxyphenyl)-N-isopropyl-4H-1,2,4-triazole-3-carboxamide, trifluoroacetic acid], the EC50 in test [1] and in test [2] was 100 to 1000 nM in each case. Further, the IC50 at HSP90a protein was < 100 nM; on KRAS(G12C), > 1000 nM.
In the case of `C=CC(=O)N1CCN(c2nc(NCCC(=O)N3CCC(CN4CCN(Cc5ccc(-n6c(C(=O)NCC(F)(F)F)nnc6-c6cc(CC)c(O)cc6O)cc5)CC4)CC3)nc3c2CCN(c2cccc4ccccc24)C3)C[C@H]1CC#N` [Compound 76, (R)-4-(4-((4-((1-(3-((4-(4-acryloyl-3-(cyanomethyl)piperazin-1-yl)-7-(naphthalen-1-yl)-5,6,7,8-tetrahydropyrido[3,4-d]pyrimidin-2-yl)amino)propanoyl)piperidin-4-yl)methyl)piperazin-1-yl)methyl)phenyl)-5-(5-ethyl-2,4-dihydroxyphenyl)-N-(2,2,2-trifluoroethyl)-4H-1,2,4-triazole-3-carboxamide, trifluoroacetic acid], the EC50 in test [1] and in test [2] was 100 to 1000 nM throughout. Also, the IC50 is 100 to 1000 nM at HSP90a protein and > 1000 nM on KRAS(G12C).
For `C=CC(=O)N1CCN(c2nc(NCCC(=O)N3CCC(CN4CCN(Cc5ccc(-n6c(C(=O)NCC(F)(F)F)nnc6-c6cc(C)c(O)cc6O)cc5)CC4)CC3)nc3c2CCN(c2cccc4cccc(Cl)c24)C3)C[C@H]1CC#N` [Compound 79, (R)-4-(4-((4-((1-(3-((4-(4-acryloyl-3-(cyanomethyl)piperazin-1-yl)-7-(8-chloronaphthalen-1-yl)-5,6,7,8-tetrahydropyrido[3,4-d]pyrimidin-2-yl)amino)propanoyl)piperidin-4-yl)methyl)piperazin-1-yl)methyl)phenyl)-5-(2,4-dihydroxy-5-methylphenyl)-N-(2,2,2-trifluoroethyl)-4H-1,2,4-triazole-3-carboxamide, trifluoroacetic acid], the EC50 in test [1] and in test [2] was 100 to 1000 nM each time. The figures for the IC50 on HSP90a protein and at KRAS(G12C) were 100 to 1000 nM and > 1000 nM, respectively.
As to `C=CC(=O)N1CCN(c2nc(NCCC(=O)NCC3CCC(C(=O)N4CCN(Cc5ccc(-n6c(O)nnc6-c6cc(CC)c(O)cc6O)cc5)CC4)CC3)nc3c2CCN(c2cc(O)cc4ccccc24)C3)CC1` (stereo not drawn) [Compound 23, 3-((4-(4-acryloylpiperazin-1-yl)-7-(3-hydroxynaphthalen-1-yl)-5,6,7,8-tetrahydropyrido[3,4-d]pyrimidin-2-yl)amino)-N-((4-(4-(4-(3-(5-ethyl-2,4-dihydroxyphenyl)-5-hydroxy-4H-1,2,4-triazol-4-yl)benzyl)piperazine-1-carbonyl)cyclohexyl)methyl)propanamide, trifluoroacetic acid], the EC50 in test [1] and in test [2] was 100 to 1000 nM in each case. For the same compound, the IC50 on HSP90a protein was 100 to 1000 nM; on KRAS(G12C) it was > 1000 nM.
As to `C=CC(=O)N1CCN(c2nc(NCCC(=O)NCc3ccc(CN4CCC(Cc5ccc(-n6c(C(=O)NCC(F)(F)F)nnc6-c6cc(C(C)C)c(O)cc6O)cc5)CC4)cc3)nc3c2CCN(c2cccc4ccccc24)C3)C[C@H]1CC#N` [Compound 95, (R)-4-(4-((1-(4-((3-((4-(4-acryloyl-3-(cyanomethyl)piperazin-1-yl)-7-(naphthalen-1-yl)-5,6,7,8-tetrahydropyrido[3,4-d]pyrimidin-2-yl)amino)propanamido)methyl)benzyl)piperidin-4-yl)methyl)phenyl)-5-(2,4-dihydroxy-5-isopropylphenyl)-N-(2,2,2-trifluoroethyl)-4H-1,2,4-triazole-3-carboxamide, trifluoroacetic acid], the EC50 in test [1] and in test [2] was 100 to 1000 nM in each case. The IC50 on HSP90a protein is 100 to 1000 nM; on KRAS(G12C), > 1000 nM.
As to `CC(=O)N1CCN(c2nc(NCCC(=O)NCc3ccc(CN4CCC(Cc5ccc(-n6c(C(=O)NCC(F)(F)F)nnc6-c6cc(C(C)C)c(O)cc6O)cc5)CC4)cc3)nc3c2CCN(c2cc(O)cc4ccccc24)C3)CC1` [Compound 54, 4-(4-((1-(4-((3-((4-(4-acetylpiperazin-1-yl)-7-(3-hydroxynaphthalen-1-yl)-5,6,7,8-tetrahydropyrido[3,4-d]pyrimidin-2-yl)amino)propanamido)methyl)benzyl)piperidin-4-yl)methyl)phenyl)-5-(2,4-dihydroxy-5-isopropylphenyl)-N-(2,2,2-trifluoroethyl)-4H-1,2,4-triazole-3-carboxamide, trifluoroacetic acid], the EC50 in test [1] is 100 to 1000 nM; in test [2], 100 to 1000 nM; in test [3], < 100 nM. The figures for the IC50 on HSP90a protein and on KRAS(G12C) were 100 to 1000 nM and > 1000 nM, respectively.
With `C=CC(=O)N1CCN(c2nc(NCCC(=O)N3CCC(CN4CCN(Cc5ccc(-n6c(O)nnc6-c6cc(C(C)C)c(O)cc6O)cc5)CC4)CC3)nc3c2CCN(c2cc(O)cc4ccccc24)C3)CC1` [Compound 14, 1-(4-(2-((3-(4-((4-(4-(3-(2,4-dihydroxy-5-isopropylphenyl)-5-hydroxy-4H-1,2,4-triazol-4-yl)benzyl)piperazin-1-yl)methyl)piperidin-1-yl)-3-oxopropyl)amino)-7-(3-hydroxynaphthalen-1-yl)-5,6,7,8-tetrahydropyrido[3,4-d]pyrimidin-4-yl)piperazin-1-yl)prop-2-en-1-one, trifluoroacetic acid], the figures for the concentration giving a half-maximal response (EC50) in test [1], in test [2] and in test [3] were 100 to 1000 nM, > 1000 nM and > 1000 nM, respectively. The IC50 on HSP90a protein was < 100 nM; on KRAS(G12C) it was > 1000 nM.
